According to patent US20230085307A1, “PYRIDAZINONE COMPOUND AND HERBICIDE” (NISSAN CHEMICAL CORPORATION, priority 2019, published 2023):

Experiments:
barnyard grass [1] = test: Test Example 3: herbicidal effect by foliage application, Wagner pot (Table 18, symbol H); assay type: in vivo, barnyard grass (Echinochloa crus-galli); settings: 320 g/ha
Method in brief: (§1)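 Plants were sown in alluvial soil held under 0.1–0.5 cm standing water and grown 14 days in a greenhouse at 25–30 °C. An emulsifiable formulation, water-diluted to the set dose, was then sprayed onto the foliage, and effects were scored three weeks later using previously defined criteria.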

Chinese sprangletop = test: Test Example 3: herbicidal effect by foliage application, Wagner pot (Table 18, symbol D); assay type: in vivo, chinese sprangletop (Leptochloa chinensis); settings: 320 g/ha
Method in brief: as §1

rice flat sedge = test: Test Example 3: herbicidal effect by foliage application, Wagner pot (Table 18, symbol E); assay type: in vivo, rice flat sedge (Cyperus iria); settings: 320 g/ha
Method in brief: as §1

southern crabgrass [2] = test: Test Example 4: herbicidal effect by soil treatment (Table 19, symbol F); assay type: in vivo, southern crabgrass (Digitaria ciliaris); settings: amount of applied herbicide 320 g/ha
Method in brief: (§2)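 Herbicidal effect was rated 3 weeks after treatment, using the scoring criteria of an earlier test. The compound, formulated as an emulsion and diluted in water to a set herbicide amount, had been sprayed uniformly on soil over freshly sown seeds. Growth took place in a greenhouse at 25° C. to 30° C.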

green foxtail [3] = test: Test Example 4: herbicidal effect by soil treatment (Table 19, symbol G); assay type: in vivo, green foxtail (Setaria viridis); settings: amount of applied herbicide 320 g/ha
Method in brief: as §2

barnyard grass [4] = test: Test Example 4: herbicidal effect by soil treatment (Table 19, symbol H); assay type: in vivo, barnyard grass (Echinochloa crus-galli); settings: amount of applied herbicide 320 g/ha
Method in brief: as §2

wild oat [5] = test: Test Example 4: herbicidal effect by soil treatment (Table 19, symbol I); assay type: in vivo, wild oat (Avena fatua); settings: amount of applied herbicide 320 g/ha
Method in brief: as §2

blackgrass [6] = test: Test Example 4: herbicidal effect by soil treatment (Table 19, symbol J); assay type: in vivo, blackgrass (Alopecurus myosuroides); settings: amount of applied herbicide 320 g/ha
Method in brief: as §2

Italian ryegrass [7] = test: Test Example 4: herbicidal effect by soil treatment (Table 19, symbol K); assay type: in vivo, Italian ryegrass (Lolium multiflorum); settings: amount of applied herbicide 320 g/ha
Method in brief: as §2

windgrass [8] = test: Test Example 4: herbicidal effect by soil treatment (Table 19, symbol L); assay type: in vivo, windgrass (Apera spica-venti); settings: amount of applied herbicide 320 g/ha
Method in brief: as §2

velvetleaf [9] = test: Test Example 4: herbicidal effect by soil treatment (Table 19, symbol M); assay type: in vivo, velvetleaf (Abutilon theophrasti); settings: amount of applied herbicide 320 g/ha
Method in brief: as §2

redroot pigweed [10] = test: Test Example 4: herbicidal effect by soil treatment (Table 19, symbol N); assay type: in vivo, redroot pigweed (Amaranthus retroflexus); settings: amount of applied herbicide 320 g/ha
Method in brief: as §2

lambsquarters [11] = test: Test Example 4: herbicidal effect by soil treatment (Table 19, symbol O); assay type: in vivo, lambsquarters (Chenopodium album); settings: amount of applied herbicide 320 g/ha
Method in brief: as §2

chickweed [12] = test: Test Example 4: herbicidal effect by soil treatment (Table 19, symbol P); assay type: in vivo, common chickweed (Stellaria media); settings: amount of applied herbicide 320 g/ha
Method in brief: as §2

false cleavers [13] = test: Test Example 4: herbicidal effect by soil treatment (Table 19, symbol Q); assay type: in vivo, false cleavers (Galium spurium); settings: amount of applied herbicide 320 g/ha
Method in brief: as §2

persian speedwell [14] = test: Test Example 4: herbicidal effect by soil treatment (Table 19, symbol R); assay type: in vivo, Persian speedwell (Veronica persica); settings: amount of applied herbicide 320 g/ha
Method in brief: as §2

southern crabgrass [15] = test: Test Example 5: herbicidal effect by foliage application, plastic box (Table 20, symbol F); assay type: in vivo, southern crabgrass (Digitaria ciliaris); settings: foliage application, 320 g/ha, three weeks after application
Method in brief: (§3)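 Foliar spray test: emulsion formulation diluted in water to a set application rate, sprayed onto 14-day-old plants raised in diluvial soil at 25° C to 30° C under glass. Both herbicidal effect and crop effect rated visually three weeks later.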

green foxtail [16] = test: Test Example 5: herbicidal effect by foliage application, plastic box (Table 20, symbol G); assay type: in vivo, green foxtail (Setaria viridis); settings: foliage application, 320 g/ha, three weeks after application
Method in brief: as §3

barnyard grass [17] = test: Test Example 5: herbicidal effect by foliage application, plastic box (Table 20, symbol H); assay type: in vivo, barnyard grass (Echinochloa crus-galli); settings: foliage application, 320 g/ha, three weeks after application
Method in brief: as §3

wild oat [18] = test: Test Example 5: herbicidal effect by foliage application, plastic box (Table 20, symbol I); assay type: in vivo, wild oat (Avena fatua); settings: foliage application, 320 g/ha, three weeks after application
Method in brief: as §3

blackgrass [19] = test: Test Example 5: herbicidal effect by foliage application, plastic box (Table 20, symbol J); assay type: in vivo, blackgrass (Alopecurus myosuroides); settings: foliage application, 320 g/ha, three weeks after application
Method in brief: as §3

Italian ryegrass [20] = test: Test Example 5: herbicidal effect by foliage application, plastic box (Table 20, symbol K); assay type: in vivo, Italian ryegrass (Lolium multiflorum); settings: foliage application, 320 g/ha, three weeks after application
Method in brief: as §3

windgrass [21] = test: Test Example 5: herbicidal effect by foliage application, plastic box (Table 20, symbol L); assay type: in vivo, windgrass (Apera spica-venti); settings: foliage application, 320 g/ha, three weeks after application
Method in brief: as §3

velvetleaf [22] = test: Test Example 5: herbicidal effect by foliage application, plastic box (Table 20, symbol M); assay type: in vivo, velvetleaf (Abutilon theophrasti); settings: foliage application, 320 g/ha, three weeks after application
Method in brief: as §3

redroot pigweed [23] = test: Test Example 5: herbicidal effect by foliage application, plastic box (Table 20, symbol N); assay type: in vivo, redroot pigweed (Amaranthus retroflexus); settings: foliage application, 320 g/ha, three weeks after application
Method in brief: as §3

lambsquarters [24] = test: Test Example 5: herbicidal effect by foliage application, plastic box (Table 20, symbol O); assay type: in vivo, lambsquarters (Chenopodium album); settings: foliage application, 320 g/ha, three weeks after application
Method in brief: as §3

chickweed [25] = test: Test Example 5: herbicidal effect by foliage application, plastic box (Table 20, symbol P); assay type: in vivo, common chickweed (Stellaria media); settings: foliage application, 320 g/ha, three weeks after application
Method in brief: as §3

false cleavers [26] = test: Test Example 5: herbicidal effect by foliage application, plastic box (Table 20, symbol Q); assay type: in vivo, false cleavers (Galium spurium); settings: foliage application, 320 g/ha, three weeks after application
Method in brief: as §3

persian speedwell [27] = test: Test Example 5: herbicidal effect by foliage application, plastic box (Table 20, symbol R); assay type: in vivo, Persian speedwell (Veronica persica); settings: foliage application, 320 g/ha, three weeks after application
Method in brief: as §3

SMILES	herbicidal effect on H (barnyard grass), rating 0-5 (barnyard grass [1])	herbicidal effect on D (Chinese sprangletop), rating 0-5 (Chinese sprangletop)	herbicidal effect on E (rice flat sedge), rating 0-5 (rice flat sedge)	herbicidal effect rating, F: southern crabgrass (southern crabgrass [2])	herbicidal effect rating, G: green foxtail (green foxtail [3])	herbicidal effect rating, H: barnyard grass (barnyard grass [4])	herbicidal effect rating, I: wild oat (wild oat [5])	herbicidal effect rating, J: blackgrass (blackgrass [6])	herbicidal effect rating, K: Italian ryegrass (Italian ryegrass [7])	herbicidal effect rating, L: windgrass (windgrass [8])	herbicidal effect rating, M: velvetleaf (velvetleaf [9])	herbicidal effect rating, N: redroot pigweed (redroot pigweed [10])	herbicidal effect rating, O: lambsquarters (lambsquarters [11])	herbicidal effect rating, P: chickweed (chickweed [12])	herbicidal effect rating, Q: false cleavers (false cleavers [13])	herbicidal effect rating, R: persian speedwell (persian speedwell [14])	herbicidal effect grade, F: southern crabgrass (southern crabgrass [15])	herbicidal effect grade, G: green foxtail (green foxtail [16])	herbicidal effect grade, H: barnyard grass (barnyard grass [17])	herbicidal effect grade, I: wild oat (wild oat [18])	further results
CCc1ccccc1-c1sc2ccccc2c1-c1c(O)c(C)nn(C)c1=O [1-003]	1 (Herbicidal rate of 5% or more and less than 20%)	3 (Herbicidal rate of 40% or more and less than 70%)	3 (Herbicidal rate of 40% or more and less than 70%)	3 (Herbicidal rate of 40% or more and less than 70%)	4 (Herbicidal rate of 70% or more and less than 90%)	0 (Herbicidal rate of 5% or less (almost no effect))	0 (Herbicidal rate of 5% or less (almost no effect))	0 (Herbicidal rate of 5% or less (almost no effect))	0 (Herbicidal rate of 5% or less (almost no effect))	0 (Herbicidal rate of 5% or less (almost no effect))	0 (Herbicidal rate of 5% or less (almost no effect))	2 (Herbicidal rate of 20% or more and less than 40%)	3 (Herbicidal rate of 40% or more and less than 70%)	4 (Herbicidal rate of 70% or more and less than 90%)	3 (Herbicidal rate of 40% or more and less than 70%)	2 (Herbicidal rate of 20% or more and less than 40%)	4 (Herbicidal rate of 70% or more and less than 90%)	5 (Herbicidal rate of 90% or more (almost completely withered))	3 (Herbicidal rate of 40% or more and less than 70%)	3 (Herbicidal rate of 40% or more and less than 70%)	herbicidal effect grade, J: blackgrass (blackgrass [19]): 3 (Herbicidal rate of 40% or more and less than 70%); herbicidal effect grade, K: Italian ryegrass (Italian ryegrass [20]): 3 (Herbicidal rate of 40% or more and less than 70%); herbicidal effect grade, L: windgrass (windgrass [21]): 5 (Herbicidal rate of 90% or more (almost completely withered)); herbicidal effect grade, M: velvetleaf (velvetleaf [22]): 4 (Herbicidal rate of 70% or more and less than 90%); herbicidal effect grade, N: redroot pigweed (redroot pigweed [23]): 3 (Herbicidal rate of 40% or more and less than 70%); herbicidal effect grade, O: lambsquarters (lambsquarters [24]): 0 (Herbicidal rate of 5% or less (almost no effect)); herbicidal effect grade, P: chickweed (chickweed [25]): 5 (Herbicidal rate of 90% or more (almost completely withered)); herbicidal effect grade, Q: false cleavers (false cleavers [26]): 5 (Herbicidal rate of 90% or more (almost completely withered)); herbicidal effect grade, R: persian speedwell (persian speedwell [27]): 5 (Herbicidal rate of 90% or more (almost completely withered))
CCCCOc1ccccc1-c1sc2ccccc2c1-c1c(OC(=O)CCC)c(C)nn(C)c1=O [1-023]	1 (Herbicidal rate of 5% or more and less than 20%)	0 (Herbicidal rate of 5% or less (almost no effect))	3 (Herbicidal rate of 40% or more and less than 70%)	0 (Herbicidal rate of 5% or less (almost no effect))	2 (Herbicidal rate of 20% or more and less than 40%)	0 (Herbicidal rate of 5% or less (almost no effect))	0 (Herbicidal rate of 5% or less (almost no effect))	0 (Herbicidal rate of 5% or less (almost no effect))	0 (Herbicidal rate of 5% or less (almost no effect))	0 (Herbicidal rate of 5% or less (almost no effect))	0 (Herbicidal rate of 5% or less (almost no effect))	0 (Herbicidal rate of 5% or less (almost no effect))	0 (Herbicidal rate of 5% or less (almost no effect))	0 (Herbicidal rate of 5% or less (almost no effect))	0 (Herbicidal rate of 5% or less (almost no effect))	0 (Herbicidal rate of 5% or less (almost no effect))	0 (Herbicidal rate of 5% or less (almost no effect))	0 (Herbicidal rate of 5% or less (almost no effect))	0 (Herbicidal rate of 5% or less (almost no effect))	0 (Herbicidal rate of 5% or less (almost no effect))	herbicidal effect grade, J: blackgrass (blackgrass [19]): 0 (Herbicidal rate of 5% or less (almost no effect)); herbicidal effect grade, K: Italian ryegrass (Italian ryegrass [20]): 0 (Herbicidal rate of 5% or less (almost no effect)); herbicidal effect grade, L: windgrass (windgrass [21]): 0 (Herbicidal rate of 5% or less (almost no effect)); herbicidal effect grade, M: velvetleaf (velvetleaf [22]): 0 (Herbicidal rate of 5% or less (almost no effect)); herbicidal effect grade, N: redroot pigweed (redroot pigweed [23]): 0 (Herbicidal rate of 5% or less (almost no effect)); herbicidal effect grade, O: lambsquarters (lambsquarters [24]): 0 (Herbicidal rate of 5% or less (almost no effect)); herbicidal effect grade, P: chickweed (chickweed [25]): 5 (Herbicidal rate of 90% or more (almost completely withered)); herbicidal effect grade, Q: false cleavers (false cleavers [26]): 2 (Herbicidal rate of 20% or more and less than 40%); herbicidal effect grade, R: persian speedwell (persian speedwell [27]): 3 (Herbicidal rate of 40% or more and less than 70%)
